Converted amounts (≈) assume the structure as drawn. Where a SMILES comes first, the peptide text is derived from it. Bridges are numbered along the chain shown (N, C = ends). Roman numbers before positions name the chains, in order. [ ]: non-standard residue; d: D form. βAla = NCCC(=O)O
Legend:
P. aeruginosa AV65 = assay type: cell-based, Pseudomonas aeruginosa; conditions: AV65, 24 h
Protocol: (§1) M33, […], M35 and M36 MICs were determined against strains of several bacterial species, including Gram-negative pathogens and also Staphylococcus aureus (Table 1). MICs in the micromolar range were observed against several Gram-negatives including Pseudomonas aeruginosa, Acinetobacter baumannii and most Enterobacteriaceae, with the exception of Proteus mirabilis, Serratia marcescens and Burkholderia cepacia. Activity of peptides was retained against MDR strains with various resistance mechanisms (such as extended-spectrum beta-lactamases and carbapenemases), including MDR P. aeruginosa strains from CF patients. Antimicrobial profile of M33, […] and potency were overall similar to those of polymyxin B, although M33, M34, M35 and M36 also appeared to have some activity against S. aureus (Table 1).

P. aeruginosa EF-OBG6-1 = assay type: cell-based, Pseudomonas aeruginosa; conditions: EF-OBG6-1, 24 h
Protocol: as §1

P. aeruginosa PAO-1 = assay type: cell-based, Pseudomonas aeruginosa; conditions: PAO-1, 24 h
Protocol: as §1

[1] = test system: P. aeruginosa SC-BGr12-02; assay type: cell-based, Pseudomonas aeruginosa; conditions: SC-BGr12-02, 24 h
Protocol: as §1

[2] = test system: P. aeruginosa SC-CNm03-07; assay type: cell-based, Pseudomonas aeruginosa; conditions: SC-CNm03-07, 24 h
Protocol: as §1

[3] = test system: P. aeruginosa SC-DMr05-04; assay type: cell-based, Pseudomonas aeruginosa; conditions: SC-DMr05-04, 24 h
Protocol: as §1

[4] = test system: P. aeruginosa SC-GMm03-05; assay type: cell-based, Pseudomonas aeruginosa; conditions: SC-GMm03-05, 24 h
Protocol: as §1

[5] = test system: P. aeruginosa SC-MDm03-02; assay type: cell-based, Pseudomonas aeruginosa; conditions: SC-MDm03-02, 24 h
Protocol: as §1

[6] = test system: P. aeruginosa SC-MDr03-06; assay type: cell-based, Pseudomonas aeruginosa; conditions: SC-MDr03-06, 24 h
Protocol: as §1

[7] = test system: P. aeruginosa SC-VMr04-05; assay type: cell-based, Pseudomonas aeruginosa; conditions: SC-VMr04-05, 24 h
Protocol: as §1

P. aeruginosa VR-143/97 = assay type: cell-based, Pseudomonas aeruginosa; conditions: VR-143/97, 24 h
Protocol: as §1

[8] = test system: Acinetobacter baumannii RUH 134; assay type: cell-based; conditions: RUH 134, 24 h
Protocol: as §1

[9] = test system: Burkholderia cepacia ORB-99; assay type: cell-based; conditions: 24 h
Protocol: as §1

[10] = test system: Enterobacer aerogenes W03BG0067; assay type: cell-based; conditions: 24 h
Protocol: as §1

[11] = test system: Enterobacter cloacae W03AN0041; assay type: cell-based; conditions: W03AN0041, 24 h
Protocol: as §1

[12] = test system: Escherichia coli ATCC 25922; assay type: cell-based; conditions: ATCC 25922, 24 h
Protocol: as §1

[13] = test system: Klebsiella pneumoniae ATCC 13833; assay type: cell-based; conditions: ATCC 13833, 24 h
Protocol: as §1

[14] = test system: Proteus mirabilis W03VA1017; assay type: cell-based; conditions: W03VA1017, 24 h
Protocol: as §1

[15] = test system: Pseudomonas aeruginosa ATCC 27853; assay type: cell-based; conditions: ATCC 27853, 24 h
Protocol: as §1

[16] = test system: Serratia marcescens W03BG0003; assay type: cell-based; conditions: W03BG0003, 24 h
Protocol: as §1

[17] = test system: Staphylococcus aureus ATCC 29213; assay type: cell-based; conditions: ATCC 29213, 24 h
Protocol: as §1

K pneumoniae 7086042 = assay type: cell-based, Klebsiella pneumoniae; conditions: 7086042, 24 h
Protocol: as §1

K pneumoniae C8-27 = assay type: cell-based, Klebsiella pneumoniae; conditions: C8-27, 24 h
Protocol: as §1

K pneumoniae FIPP-1 = assay type: cell-based, Klebsiella pneumoniae; conditions: FIPP-1, 24 h
Protocol: as §1

E. coli W03BG0025 = assay type: cell-based, Escherichia coli; conditions: W03BG0025, 24 h
Protocol: as §1

A. baumannii MR157 = assay type: cell-based, Acinetobacter baumannii; conditions: MR157, 24 h
Protocol: as §1

A. baumannii RUH 875 = assay type: cell-based, Acinetobacter baumannii; conditions: RUH 875, 24 h
Protocol: as §1

S. aureus 3851 = assay type: cell-based, Staphylococcus aureus; conditions: 3851, 24 h
Protocol: as §1

human erythrocytes = assay type: cell-based
Protocol: FIG. 2. Percentage of haemolysis provoked by tetra-branched M33 peptide incubated 3 or 24 hours with human red blood cells.
Haemolysis of fresh human erythrocytes was determined using the method of Parpart, summarized as follows. A calibration curve was constructed by suspending fresh human erythrocytes in phosphate buffer (pH 7.4, 110 mM sodium phosphate) with various concentrations of NaCl and incubated for 30 min at room temperature. Samples were centrifuged at 500×g for 5 minutes, and haemoglobin release was monitored by measuring the absorbance of supernatants at 540 nm. The absorbance obtained with 0.1% NaCl corresponded to 100% lysis and that with 1% NaCl, to 0% lysis. Peptides dissolved in PBS were added to human erythrocyte solution at several concentrations. The resulting suspension was incubated separately at 37° C. for 2 h and 24 h. Release of hemoglobin was monitored by measuring the absorbance of the suspernatant at 540 nm after centrifuging and haemolysis percentage was calculated using the calibration curve.

- MIC (P. aeruginosa AV65): 1.5 µM (≈ 7.19 µg/mL)
- MIC (P. aeruginosa EF-OBG6-1): 1.5 µM (≈ 7.19 µg/mL)
- MIC (P. aeruginosa PAO-1): 1.5 µM (≈ 7.19 µg/mL)
- MIC [1]: 1.5 µM (≈ 7.19 µg/mL)
- MIC [2]: 0.3 µM (≈ 1.44 µg/mL)
- MIC [3]: 1.5 µM (≈ 7.19 µg/mL)
- MIC [4]: 1.5 µM (≈ 7.19 µg/mL)
- MIC [5]: 3 µM (≈ 14.4 µg/mL)
- MIC [6]: 3 µM (≈ 14.4 µg/mL)
- MIC [7]: 3 µM (≈ 14.4 µg/mL)
- MIC (P. aeruginosa VR-143/97): 1.5 µM (≈ 7.19 µg/mL)
- MIC [8]: 1.5 µM (≈ 7.19 µg/mL)
- MIC [9]: >24 µM
- MIC [10]: 1.5 µM (≈ 7.19 µg/mL)
- MIC [11]: 3 µM (≈ 14.4 µg/mL)
- MIC [12]: 1.5 µM (≈ 7.19 µg/mL)
- MIC [13]: 1.5 µM (≈ 7.19 µg/mL)
- MIC [14]: >24 µM
- MIC [15]: 1.5 µM (≈ 7.19 µg/mL)
- MIC [16]: >24 µM
- MIC [17]: 6 µM (≈ 28.8 µg/mL)
- MIC (K pneumoniae 7086042): 3 µM (≈ 14.4 µg/mL)
- MIC (K pneumoniae C8-27): 1.5 µM (≈ 7.19 µg/mL)
- MIC (K pneumoniae FIPP-1): 3 µM (≈ 14.4 µg/mL)
- MIC (E. coli W03BG0025): 1.5 µM (≈ 7.19 µg/mL)
- MIC (A. baumannii MR157): 3 µM (≈ 14.4 µg/mL)
- MIC (A. baumannii RUH 875): 3 µM (≈ 14.4 µg/mL)
- MIC (S. aureus 3851): 6 µM (≈ 28.8 µg/mL)
SMILES: CC[C@H](C)[C@H](NC(=O)[C@H](CCCCN)NC(=O)[C@@H](N)CCCNC(=N)N)C(=O)N[C@@H](CCCNC(=N)N)C(=O)N[C@H](C(=O)N[C@@H](CCCNC(=N)N)C(=O)N[C@@H](CC(C)C)C(=O)N[C@@H](CO)C(=O)N[C@@H](C)C(=O)NCCCC[C@H](NC(=O)[C@H](C)NC(=O)[C@H](CO)NC(=O)[C@H](CC(C)C)NC(=O)[C@H](CCCNC(=N)N)NC(=O)[C@@H](NC(=O)[C@H](CCCNC(=N)N)NC(=O)[C@@H](NC(=O)[C@H](CCCCN)NC(=O)[C@@H](N)CCCNC(=N)N)[C@@H](C)CC)C(C)C)C(=O)NCCCC[C@H](NC(=O)[C@H](CCCCNC(=O)[C@H](C)NC(=O)[C@H](CO)NC(=O)[C@H](CC(C)C)NC(=O)[C@H](CCCNC(=N)N)NC(=O)[C@@H](NC(=O)[C@H](CCCNC(=N)N)NC(=O)[C@@H](NC(=O)[C@H](CCCCN)NC(=O)[C@@H](N)CCCNC(=N)N)[C@@H](C)CC)C(C)C)NC(=O)[C@H](C)NC(=O)[C@H](CO)NC(=O)[C@H](CC(C)C)NC(=O)[C@H](CCCNC(=N)N)NC(=O)[C@@H](NC(=O)[C@H](CCCNC(=N)N)NC(=O)[C@@H](NC(=O)[C@H](CCCCN)NC(=O)[C@@H](N)CCCNC(=N)N)[C@@H](C)CC)C(C)C)C(=O)NCCC(=O)O)C(C)C [M36, RKIRVRLSA] (I: H-RKIRVRLSAKK[βAla]-OH / II: H-RKIRVRLSAK / III: H-RKIRVRLSA / IV: H-RKIRVRLSA; amide I:10-IV:C, I:11-II:C, II:10-III:C; N-terminus assumed)
- Haemolysis of human red blood cells (human erythrocytes): practically negligible haemolysis grade
